Experimental data taken from patent publication US9464326B2, “Total and phosphorylated IL-1 receptor-associated kinase-1 and IL-1 receptor-associated kinase-4 as a biomarker for cancer progression and chemotherapy resistance” (University of Maryland, Baltimore, priority 2012, dated 2016).

Assays:
[1] = system: A375 melanoma cells; test: Apoptosis by annexin-V/PI flow cytometry in A375; type: cell-based, human
Method: FIG. 8. IRAK-1,-4 inhibition sensitized melanoma cells to vinblastine-mediated cytotoxicity. (A) A375 and Malme-3M melanoma cells were cultured with or without 2.5 μM of IRAK-1,-4 and in the presence varying concentrations of vinblastine, cisplatin or 5′ Fluorouracil. Forty-eight hours later apoptosis was evaluated by staining cells with annexin-V and propidium iodide and analyzed by flow cytometry. (B) A375 cells were transfected via electroporation with siRNA-IRAK-1,-4. IRAK-1 protein levels were examined by Western blotting. […], A375-psiRNA-hIRAK-1, A375-psiRNA-hIRAK-4, or cells expressing both psiRNA-hIRAK-1 and -4 were cultured in the presence of vinblastine (100 nmol/L) for 48 hours and apoptosis was examined by flow cytometry. (C) A375 melanoma cells were cultured in the presence of vehicle alone (DMSO) or various concentrations of IRAK-1,-4. Forty-eight hours later cell lysates were used to analyze the expression of levels of cleaved PARP or caspase-3 by Western blots. (D) A375 melanoma cells were cultured with or without 2.5 μM of IRAK.-1,-4 and in the presence or absence of vinblastine for 48 hrs. PARP and caspase-3 levels were determined by Western blot.
FIG. 20. Role of TLR-induced cytokines and NF-kB on cell survival. […] The percentage of apoptotic cells was measured by staining cells with Annexin and PI 48 hours later and analyzed by flow cytometry. […] After 48 hours, apoptosis was measured by flow cytometry. […] Apoptosis was measured 48 hours later by flow cytometry.
The TLR1-TLR2 ligand tripalmitoyl-S-(bis(palmitoyloxy)propyl)-Cys-Ser-(Lys)3-Lys (Pam3Cys) was purchased from Invivogen (San Diego, Calif., USA). […] In some experiments cells were treated with the indicated concentrations of IRAK.-1,-4 inhibitor and vinblastine, cisplatin, and 5-fluorouracil (Sigma-Aldrich, St. Louis, Mo.), and apoptosis was quantitated by flow cytometry after staining cells with FITC-labeled annexin-V (BD Pharmingen, San Jose, Calif.) and propidium iodide (PI; Sigma-Aldrich).

[2] = system: patient T-ALL cells; test: Patient T-ALL numbers in NSG mice (flow cytometry); type: in vivo; conditions: patient T-ALL cells in irradiated NSG mice; 10 mg/Kg i.p. days 7, 10, 13; FIG. 12
Method: FIG. 12. […] NSG mice were irradiated (400 cGy) one day prior to intravenous injection of patient T-ALL cells (6×10^6 cells/mouse). Once 100 T-ALL cells/ul of blood were detected, mice were received one intraperitoneal injection with IRAK-1,-4 inhibitor (10 mg/Kg) or an equal volume of control vehicle (DMSO) on days 7, 10 and 13. Numbers of T-ALL cells (CD7^+) in peripheral blood were determined on day 27 and D21 by flow cytometry as described in FIG. 1. All the data shown are representative of two independent experiments (±SD) with three mice per group. Representative dot plots from bone marrow are shown in A (left panel). ANOVA; *P<0.05.
CCRF-CEM (2×10^6) cells were injected intravenously (i.v.) into female NOD.Cg-Prkdc^scid Il2rg^tm1WJl/SzJ IL2RG (NSG) mice (Jackson Laboratories, Bar Harbor, Me.). […] In some experiments mice were injected i.v. with TLR1-TLR2 ligand (2.5 μg) two days after injecting cells. In other experiments mice were injected intraperitoneally (i.p.) with IRAK-1,-4 inhibitor (10 mg/kg) 3, 6, and 9 days (CCRF-CEM cells) or 7, 10, and 13 days (patient T-ALL cells) after detecting CD7^+ T-ALL cells in circulation. The numbers of T-ALL cells in the bone marrow, spleen, liver, and in circulation were determined by staining cells with anti-human CD7 and/or CD5. […]

## O=C(Nc1nc2ccccc2n1CCN1CCOCC1)c1cccc([N+](=O)[O-])c1 [IRAK-1,-4 inhibitor]
[1]; 2.5 μmol/L IRAK-1,-4 inhibitor with 0-200 nmol/L vinblastine, 48 h
  sensitivity to vinblastine (apoptosis): increased sensitivity
[1]; IRAK-1,-4 inhibitor with 0-50 nmol/L cisplatin
  cisplatin's cytotoxicity: did not increase
[1]; inhibitor alone, absence of vinblastine
  melanoma apoptosis: moderately increased
[2]
  T-ALL numbers (CD7+) in peripheral blood: reduces T-ALL numbers
